Molecules are shown by their SMILES. pKi: −log10 of the molar value.

We go through 16 compounds from patent US9505710B2 (priority 2015, dated 2016).

In one experiment the target is T1, BoNT/A LC1-429 (Clostridium botulinum, UniProt P0DPI1). The experiment is described as follows: biochemical.
T1 sequence (P0DPI1 1-429, added parts left off): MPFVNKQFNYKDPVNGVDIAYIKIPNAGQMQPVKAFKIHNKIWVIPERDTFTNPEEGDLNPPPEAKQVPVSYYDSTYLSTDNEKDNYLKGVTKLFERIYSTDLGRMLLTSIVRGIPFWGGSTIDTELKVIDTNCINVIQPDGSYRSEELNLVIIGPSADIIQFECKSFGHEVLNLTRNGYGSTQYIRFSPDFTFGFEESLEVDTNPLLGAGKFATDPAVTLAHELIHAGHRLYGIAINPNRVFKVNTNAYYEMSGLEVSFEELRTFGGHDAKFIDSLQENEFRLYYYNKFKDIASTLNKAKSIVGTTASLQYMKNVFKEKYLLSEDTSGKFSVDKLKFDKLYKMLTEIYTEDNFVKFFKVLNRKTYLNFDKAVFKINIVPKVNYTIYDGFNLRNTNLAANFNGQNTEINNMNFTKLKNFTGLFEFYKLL
Conditions: not given
Turning to `CCO[C@H](CC(=O)NO)[C@H](Cc1cccc(-c2ccncc2)c1)c1ccc(F)cc1` [Example 1-11, (3R,4R)-3-ethoxy-4-(4-fluorophenyl)-N-hydroxy-5-(3-(pyridin-4-yl)phenyl)pentanamide], the pKi (usually the Ki on a negative log10 scale, so that one unit is a factor of ten) is 5.97.
`CCO[C@H](CC(=O)NO)[C@H](Cc1ccc(Br)cc1)c1ccc(F)cc1` [Example 1-4, (3R,4R)-5-(4-bromophenyl)-3-ethoxy-4-(4-fluorophenyl)-N-hydroxypentanamide] showed a pKi of 8.17.
`CCO[C@H](CC(=O)NO)[C@H](Cc1ccc(-c2cncc(C)c2)cc1)c1ccc(F)cc1` [Example 1-14, (3R,4R)-3-ethoxy-4-(4-fluorophenyl)-N-hydroxy-5-(4-(5-methylpyridin-3-yl)phenyl)pentanamide] showed a pKi of 6.80.
As for `CCO[C@H](CC(=O)NO)[C@H](Cc1ccc(C(=O)N(C)C)cc1)c1ccc(F)cc1` [Example 1-8, 4-((2R,3R)-3-ethoxy-2-(4-fluorophenyl)-5-(hydroxyamino)-5-oxopentyl)-N,N-dimethylbenzamide], the negative logarithm of the Ki (pKi) was 5.36.
Regarding `C=Cc1ccc(C[C@H](c2ccc(F)cc2)[C@@H](CC(=O)NO)OCC)cc1` [Example 1-5, (3R,4R)-3-ethoxy-4-(4-fluorophenyl)-N-hydroxy-5-(4-vinylphenyl)pentanamide], the pKi was 7.47.
Turning to `CCO[C@H](CC(=O)NO)[C@H](Cc1cccc(Br)c1)c1ccc(F)cc1` [Example 1-2, (3R,4R)-5-(3-bromophenyl)-3-ethoxy-4-(4-fluorophenyl)-N-hydroxypentanamide], the pKi was 6.81.
In turn, `CCO[C@H](CC(=O)NO)[C@H](Cc1ccc(-c2ccncc2)cc1)c1ccc(F)cc1` [Example 1-12, (3R,4R)-3-ethoxy-4-(4-fluorophenyl)-N-hydroxy-5-(4-(pyridin-4-yl)phenyl)pentanamide] had a negative-log Ki (pKi) of 6.75.
Consider `CCO[C@H](CC(=O)NO)[C@H](Cc1ccc(C(=O)NC)cc1)c1ccc(F)cc1` [Example 1-7], for which the negative logarithm of the Ki (pKi) is 5.91.
As for `CCO[C@H](CC(=O)NO)[C@H](Cc1ccc(C(=O)O)cc1)c1ccc(F)cc1` [Example 1-10, 4-((2R,3R)-3-ethoxy-2-(4-fluorophenyl)-5-(hydroxyamino)-5-oxopentyl)benzoic acid], the pKi was 4.63.
On to `CCO[C@H](CC(=O)NO)[C@H](Cc1ccccc1)c1ccc(F)cc1` [Example 1-1, (3R,4R)-3-ethoxy-4-(4-fluorophenyl)-N-hydroxy-5-phenylpentanamide], for which the pKi was 7.41.
Compound `CCO[C@H](CC(=O)NO)[C@H](Cc1ccc(CC)cc1)c1ccc(F)cc1` [Example 1-6, (3R,4R)-3-ethoxy-5-(4-ethylphenyl)-4-(4-fluorophenyl)-N-hydroxypentanamide] had a pKi of 7.04.
`CCO[C@H](CC(=O)NO)[C@H](Cc1ccc(-c2cccnc2)cc1)c1ccc(F)cc1` [Example 1-13, (3R,4R)-3-ethoxy-4-(4-fluorophenyl)-N-hydroxy-5-(4-(pyridin-3-yl)phenyl)pentanamide] showed a negative logarithm of the Ki (pKi) of 6.83.

Another experiment addresses T1, BoNT/A LC1-429. The experiment is described as follows: biochemical. The conditions noted are these: BoNT/A Ki (nM).
`O=C(C[C@@H](OCc1ccccc1)[C@H](Cc1ccc(Cl)cc1)c1ccc(F)cc1F)NO` [Example 6-13, (3R,4R)-3-(benzyloxy)-5-(4-chlorophenyl)-4-(2,4-difluorophenyl)-N-hydroxypentanamide]: the affinity, expressed as Ki, was 114 nM.
In the case of `CCO[C@H](CC(=O)NO)[C@H](Cc1ccc(Cl)cc1)c1ccc(C(=O)N(CCO)CCO)cc1` [Example 4-10, 4-((2R,3R)-1-(4-chlorophenyl)-3-ethoxy-5-(hydroxyamino)-5-oxopentan-2-yl)-N,N-bis(2-hydroxyethyl)benzamide], the Ki (as a rule, a measure of affinity in units of concentration, obtained from inhibition or displacement) amounted to 16.7 nM.
The compound `CCO[C@H](CC(=O)NO)[C@H](Cc1ccc(CO)cc1)c1ccc(F)cc1` [Example 1-9, (3R,4R)-3-ethoxy-4-(4-fluorophenyl)-N-hydroxy-5-(4-(hydroxymethyl)phenyl)pentanamide] gave a Ki of 299 nM.
Regarding `CO[C@H](CC(=O)NO)[C@H](Cc1ccc(F)cc1F)c1ccc(F)cc1F` [Example 6-12, (3R,4R)-4,5-bis(2,4-difluorophenyl)-N-hydroxy-3-methoxypentanamide], the affinity, expressed as Ki, was 29.5 nM.
